This note sets out measurements from patent US20200281897A1, “INDAZOLE DERIVATIVES FOR CANCER TREATMENT” (Servicio Andaluz de Salud, priority 2016, published 2020).

What all share (assay type): cell-based, human
One data set deals with U266. Kind of data set: Western blot and immunofluorescence in U266 cells. The settings on record: U266, 50 μM. On the procedure: The extracts for Western blot were taken after 0, 2, 6, 18, and 24 hours. The cells were lysed according to Gilbert et al., 2002. (J Immunol Methods. 2002, 271:185-201), by adding 2% ASB-14 (Calbiochem, Beeston, United Kingdom) to the isotonic lysis buffer. The protein concentration was determined by Pierce® Microplate BCA Protein Assay kit-Reducing Agent Compatible (Pierce, Rockford, Ill.). The samples were subjected to SDS/PAGE in AnykD precast gels (Bio Rad, Hercules, Calif.) and transferred to PVDF membranes using Trans-Blot® Turbo™ System (Bio-Rad). The membranes were incubated over night at 4° C. with primary antibody in 0.05% Tween 20-Tris buffered saline (TTBS) then with the suitable secondary antibody, and they were subjected to chemiluminescence detection. As a control condition, the cells were treated with DMSO (<0.15%) in RPMI 1640 medium from Gibco (Gaithersburg, Md.).
The antibodies for caspase-2, -8, -9, active caspase-3, -p-Akt (phospho T308), p-Erk (T202+Y204), -p-p38MAPK (phospho T180+Y182), -p-JNK (phospho T183+Y185), -SPT, and the CB1 and CB2 receptors were from Abcam, anti-MCL-1 and -Bcl-xL were from Santa Cruz Biotechnology, anti-PARP was from Cell Signaling Technology, anti-Bax and -Bak were from BD Biosciences. Anti-beta-tubulin was from Sigma-Aldrich. All the horseradish peroxidase (HRP)-conjugated secondary antibodies used were from Jackson ImmunoResearch and produced in a donkey to prevent the possible cross-reactivity when several tests were performed.
The cells treated for 6 hours with indazole compounds were collected and placed on a slide. Immunofluorescence staining was performed as described previously by Vielhaber et al. 2001 (Glycobiology. 2001, 11:451-7) using anti-ceramide as the primary antibody. The ceramide antibody was obtained from Sigma-Aldrich, and the Alexa-488-conjugated secondary antibody was obtained from Abcam. As a control condition, the cells were treated with DMSO (<0.15%) in RPMI 1640 medium from Gibco (Gaithersburg, Md.).
(A western blot detects proteins with antibodies after separation by electrophoresis.)

The next data set has as its system HL60. Put plainly: WST-1 cell viability assay, HL60. The settings on record: HL60, 18 hours. On the procedure: (§1) The cell lines of acute myeloid leukemia KG-1a and HL60 (American Type Culture Collection) were cultured in IMDM medium supplemented with 2 mM of L-glutamine, […] of penicillin, 100 μg/ml of streptomycin, and 15% fetal bovine serum (FBS).
(§2) The cell lines and primary cells were cultured in 96-well plates (5×10e5 cells per well) with the addition of the indicated concentrations of WIN 55,212-2 or PGN cannabinoids in DMSO or with the solvent only in triplicate at 18, 48, and 72 hours. Caspase inhibitor Z-VAD (OMe)-FMK or the CB2 receptor antagonist PGN-8, -37, and -70, together with the cannabinoid WIN-55,212-2, were also added. Cell viability was determined by means of the WST-1 assay [2-(4-iodophenyl)-3-(4-nitrophenyl)-5-(2,4-disulfophenyl)-2H-tetrazolium] according to the manufacturer's instructions (Dojindo Molecular Technologies). Optical densities were measured at 450 nm using a Multiskan™ Go Microplate plate reader (Thermo Fisher Scientific, Waltham, Mass., USA).
(§3) Now it will be analyzed whether the exposure to cannabinoids had any effect on the viability of the tumor cells in vitro. To that end, the human AML U937, HL60, KG-1a, NB-4, MOLM-13, and KG-1 cell lines were cultured in serum-free medium and exposed to various concentrations of WIN-55,212-2 (range of 100 nM to 50 μM) for 18 hours, and cell viability was measured by means of WST-1 assays (Table 1). […]
A general note: Formazan colour is commonly taken as a measure of viable cells.

The subject of another data set is MOLM-13. Put plainly: WST-1 cell viability assay, MOLM-13. To be noted: MOLM-13, 18 hours. On the procedure: U937, NB-4, KG-1, and MOLM-13 (DMSZ, Braunschweig, Germany) were cultured in complete RPMI 1640 medium (with 2 mM of L-glutamine, 100 mg of penicillin, 100 μg/ml of streptomycin, and with 10% FBS), supplemented with 10 mM HEPES, 1×NaPuvuvato, and 1× non-essential amino acids.
as §2
Now it will be analyzed whether the exposure to cannabinoids had any effect on the viability of the tumor cells in vitro. […]

For another data set, the system named is RPMI-LR5. Kind of data set: MTT cell viability assay, myeloma cell line RPMI-LR5. The settings on record: RPMI-LRS, MTT, 18 hours, doses 0-50 μM; read-out: IC50, cell viability. The method, then: (§4) In vitro studies were carried out using six different human MM cell lines, U266, RPMI8226, MM1S, MM1R, U266-LR7, and RPMI-LR5. For ex vivo assays, human primary cells from healthy donors and MM patients were used (Table 1). Human MM cell lines U266, RPMI8226, and MM1.S were acquired from ATCC and lines U266-LR7, RPMI-LR5, and MM1.R were kindly provided by Dr. Enrique Ocio (Hospital Universitario de Salamanca, Spain). The primary cells were obtained from bone marrow (BM) aspirates or peripheral blood (PB) samples, and the peripheral blood mononuclear cells (PBMCs) were isolated by Ficoll-Hypaque centrifugation and washed twice in phosphate buffered saline (PBS) containing 1% BSA. Hematopoietic stem cells and B and T lymphocytes were isolated from healthy PB donors by positive immunomagnetic separation using human MACS CD34+, CD19+, and CD3+ microbeads, respectively. MM plasma cells were obtained from the bone marrow (BM) of patients with an infiltration of cells of more than 30% (Table 1). The MM plasma cells were identified using CD138+, and were then distinguished from the other cell populations by flow cytometry using a suitable combination of antibodies: anti-human CD64-FITC, CD34-PE, CD56-APC, CD38-APC-H7, and CD45-Pacific Blue antibodies (BD Biosciences, San Jose, Calif.). All the cell lines were cultured in RPMI-1640 supplemented with 10% fetal bovine serum (FBS) and 1% penicillin/streptomycin, as recommended by the supplier. For human primary cells, the concentration of FBS was up to 20%.
(§5) The MM cell lines and primary cells were exposed to different doses of indazole compounds, and viability was evaluated at 18, 48, and 72 hours. Pretreatments with the ceramide synthesis inhibitor (FB1), pan-caspase (ZVAD-FMK), and CB antagonists (PGN-8, PGN-37, and PGN-70) were performed for 30 minutes, and then the cells were incubated with indazole compound WIN-55 up to 18 hours. Cell viability was determined using the MTT assay Cell Counting Kit-8 (Dojindo, Kumamoto, Japan) according to the manufacturer's instructions.

The next data set deals with U266-LR7. Put plainly: MTT cell viability assay, myeloma cell line U266-LR7. The settings on record: U266-LR7, MTT, 18 hours, doses 0-50 μM; read-out: IC50, cell viability. On the procedure: as §4, §5
A further data set has as its system KG-1a. Put plainly: WST-1 cell viability assay, KG-1a. To be noted: 18 hours. The method, then:
as §1, §2, §3

One may read the IC50 as the midpoint of a concentration-inhibition curve. On to `CS(=O)(=O)O.Cc1c(C(=O)c2cccc3ccccc23)c2cccc3c2n1[C@H](CN1CCOCC1)CO3` [WIN-55, (R)-(+)-[2,3-dihydro-5-methyl-3-(4-morpholinomethyl)-pyrrolo[1,2,3]-1,4-benzoxazin-6-yl]-1-naphthalenylmethanone mesylate], for which, in the data set on U266, the “caspase-3 activation (cleaved forms, Western blot)” value is “induction of caspase-3 activation”. In addition, the “expression of endoplasmic reticulum stress marker proteins CHOP, ATF-4, p-IRE1, XBP-1s” value in the data set with U266 is on record as “slight but sustained decrease”. The “expression of ceramides (immunofluorescence)” value with U266 (6 hours) is on record as “considerable increase in the expression of ceramides”. For the same compound, the “expression of p-Akt (phospho-T308)” value in the data set with U266 (early points in time, decrease at later times) is on record as “significant overexpression of p-Akt”. Also, in the data set with U266 (maximum at 18 hours), the “expression level of serine-palmitoyltransferase (SPT)” value is recorded as “increased”. Also, the “% viable cells at 50 μM” value in the data set on HL60 came out at 28.4%; with MOLM-13 it was 56.6%; in the data set with KG-1a it was 42.1%. Besides, the IC50 with HL60 came to 19.4 µM; in the data set with MOLM-13, 25.9 µM; in the data set with RPMI-LR5, 16.1 µM; in the data set on U266-LR7, 17.2 µM; in the data set with KG-1a, 22 µM.
